How the values were obtained:
[1] = target: TorsinA (TorA) with LAP1 luminal domain (LAP1^LD) (Homo sapiens, UniProt O14656); settings: 3 μM TorA, 3 μM LAP1 LD, 2 mM ATP, 37 °C, 1 h
[2] = target: TorsinA (TorA) with LULL1 luminal domain (LULL1^LD) (Homo sapiens, UniProt O14656); settings: 3 μM TorA, 3 μM LULL1 LD, 2 mM ATP, 37 °C, 1 h
[3] = target: the molecule itself; experiment: SEC + other: negative stain electron microscopy

Chain of TorsinA (TorA) with LULL1 luminal domain (LULL1^LD) (Q8NFQ8 236-470 partner, one chain of several): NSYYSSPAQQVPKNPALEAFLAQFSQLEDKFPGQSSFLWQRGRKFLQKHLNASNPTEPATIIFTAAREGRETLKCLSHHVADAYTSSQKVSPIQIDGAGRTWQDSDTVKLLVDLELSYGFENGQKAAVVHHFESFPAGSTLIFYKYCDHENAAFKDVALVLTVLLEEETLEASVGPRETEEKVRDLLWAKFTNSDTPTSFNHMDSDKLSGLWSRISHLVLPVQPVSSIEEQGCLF
Chain of TorsinA (TorA) with LAP1 luminal domain (LAP1^LD) (Q5JTV8 356-583 partner, one chain of several): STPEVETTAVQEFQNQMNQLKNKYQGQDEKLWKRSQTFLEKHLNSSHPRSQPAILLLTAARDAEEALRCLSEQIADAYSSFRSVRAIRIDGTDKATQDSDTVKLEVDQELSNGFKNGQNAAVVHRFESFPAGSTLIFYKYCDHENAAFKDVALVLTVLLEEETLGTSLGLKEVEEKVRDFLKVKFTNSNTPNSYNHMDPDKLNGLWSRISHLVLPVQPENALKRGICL

Row | Molecule | malachite green phosphate release (ATPase) [1] | malachite green phosphate release (ATPase) [2] | stoichiometry N [3]
1 | Nc1ncnc2c1ncn2[C@@H]1O[C@H](COP(=O)(O)OP(=O)(O)OP(=O)(O)O)[C@@H](O)[C@H]1O [ATP] | ATPase activity was measured in the absence and presence of LAP1^LD and LULL1^LD | ATPase activity was measured in the absence and presence of LAP1^LD and LULL1^LD | –
2 | TorsinA wild type, C-terminally FLAG-tagged, full length (enzyme, human, UniProt O14656 21-332, looked up) VEPISLGLALAGVLTGYIYPRLYCLFAECCGQKRSLSREALQKDLDDNLFGQHLAKKIILNAVFGFINNPKPKKPLTLSLHGWTGTGKNFVSKIIAENIYEGGLNSDYVHLFVATLHFPHASNITLYKDQLQLWIRGNVSACARSIFIFDEMDKMHAGLIDAIKPFLDYYDLVDGVSYQKAMFIFLSNAGAERITDVALDFWRSGKQREDIKLKDIEHALSVSVFNNKNSGFWHSSLIDRNLIDYFVPFLPLEYKHLKMCIRVEMQSRGYEIDEDIVSRVAEEMTFFPKEERVFSDKGCKTVFTKLDYYYDD | – | – | ~6
